Consider 13 compounds from US5449673A, “10,11-dihydro-10-(3-substituted-1-oxo-2-propyl, propenyl or propynyl)dibenz[b,f][1,4] oxazepine prostaglandin antagonists” (G. D. Searle & Co., priority 1994, dated 1995).

One assay concerns mice. The experiment in a line: PBQ Writhing Assay (analgesia in mice). The format is in vivo, mouse (Charles River male albino mice). The note with it: for responders at 30 mg/kg: 0.5 h, 30 mg per kg, 30 min before PBQ, fraction out of 9 or 10 mice; for rank order of potency in the Writhing Assay: more potent compounds tested. An excerpt: The Writhing Assay is one of the most widely-used experimental procedures for measuring the analgesic activity of different narcotic and nonnarcotic analgesic agents, and involves the continuous, chemically-induced pain of visceral origin to an animal, such as a mouse or rat. [Gyires et al., Arch. int. Pharmacodyn, 267, 131-140 (1984); C. Vander Wende et al., Fed. Proc., 15, 494 (1956); Koster et al., Fed. Proc., 18, 412 (1959); and Witken et al., J. Pharmacol. exp. Ther., 133, 400-408 (1961).] Chemicals which may be used to induce this pain include phenylbenzoquinone (PBQ) and acetic acid. As a result of the chemical irritation to the animal, a characteristic stretching and writhing of the animal (dorsiflexion of the animal's back, extension of its hindlimbs and the strong contraction of its abdominal musculature) will generally occur. […] Drugs which reduce the number of writhes of the animal appear to restore the normal nociceptive threshold of the animal.
Charles River male albino mice, weighing 20 to 30 grams were used in this assay.
Thirty minutes after subcutaneous or intragastric administration to ten mice of 30 mg per kilogram of body weight of a compound of the present invention ("test compound"), […] per 10 g of body weight of a 0.025% w/v solution of PBQ was injected intraperitoneally into each mouse. Ten mice which were given saline in place of a test compound of the invention were used as a control group.
Five minutes later, each mouse was individually placed into a glass beaker for observation, and the number of writhes occurring during the following tenminute period was counted.
A test compound was considered to have produced analgesia in a mouse if, in accordance with the conditions set forth above, and under the test criteria employed for this assay, after the administration of 30 mg per kilogram of body weight of a compound of the present invention to the mouse, the number of writhes elicited by a mouse injected with PBQ was equal to, or less than, one-half the median number of writhes recorded for the saline-treated control group of mice that day, as described by Taber in "Predictive Value of Analgesic Assays in Mice and Rats," Advances in Biochemical Psychopharmacology, 8, 191 (1974).
The standard initial screening dose of a test compound employed in this assay was […] for both routes of administration. If this initial screening dose of the test compound produced analgesia in seven of ten mice, then the effect of additional doses of the test compound on the writhing response was evaluated, and then the ED50 dose was generally calculated. (The slopes of the dose-response curves for all test compounds analyzed were compared as described by Taltarida and Murray, Manual of Pharmacologic Calculations, Page 11 (Springer Verlag, New York, 1981)).
The results for the particular compounds of the present invention analyzed in this assay, and discussed in the examples identified below which correspond thereto, are presented in Table I hereinbelow under the heading "PBQ WRITHING ASSAY". The fractions indicate the number of mice out of 9 or 10 in which the initial screening dose of a test compound produced analgesia. The numbers which are not fractions represent ED50 doses.
(In general: In writhing tests, fewer writhes than in controls are read as antinociception.)

Assay [1] concerns the target T1, prostaglandin E2-induced contractions of segments of guinea pig ileum (Cavia porcellus, UniProt A0A286XHJ6).
T1 construct: Segments of ileum about 2 cm long were then cut and mounted in a 10-mL tissue bath; from tissue; host or cells: ileum segments of male albino guinea pigs
T1 sequence (A0A286XHJ6 1-405): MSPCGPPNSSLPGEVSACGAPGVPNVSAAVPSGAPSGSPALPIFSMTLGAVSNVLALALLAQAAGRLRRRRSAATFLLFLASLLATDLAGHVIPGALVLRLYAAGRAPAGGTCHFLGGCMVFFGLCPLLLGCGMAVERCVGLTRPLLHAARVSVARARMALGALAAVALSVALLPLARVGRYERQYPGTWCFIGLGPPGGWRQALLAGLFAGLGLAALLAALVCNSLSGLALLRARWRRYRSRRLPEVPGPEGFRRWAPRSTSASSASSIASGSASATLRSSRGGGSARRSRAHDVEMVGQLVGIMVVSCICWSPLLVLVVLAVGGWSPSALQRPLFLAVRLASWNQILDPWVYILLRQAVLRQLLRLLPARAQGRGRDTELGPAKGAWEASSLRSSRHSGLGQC
The experiment in a line: Prostaglandin (PGE) Antagonism Assay, inhibition of prostaglandin E2-induced contractions of guinea pig ileum segments. The arrangement: species or system guinea pig (male albino). The following applies: 37° C., Schild plot, read-out: PGE ANTAGONISM IN GUINEA PIG ILEUM (pA2) (converted). The procedure:
In order to determine the effectiveness of several of the compounds of the present invention ("test compounds") as prostaglandin E2 antagonists,a prostaglandin antagonism assay was conducted, as described below, to determine the ability of these compounds to inhibit prostaglandin E2 -induced contractions of segments of guinea pig ileum.
Male albino guinea pigs weighing 200 to 500 grams were sacrificed by cervical dislocation.
The ileums were then quickly removed from the guinea pigs and placed in a modified Tyrode solution, a solution which is known to those of skill in the art, containing one-half of the usual amount of magnesium ions.
Segments of ileum about 2 cm long were then cut and mounted in a 10-mL tissue bath containing the modified Tyrode solution. The solution was maintained at 37° C. and aerated with a gaseous mixture of 95% oxygen and 5% carbon dioxide.
Submaximal contractions of the ileum segments were then generated by injecting prostaglandin E2 into the bath, and detected isotonically. Data for a control prostaglandin E2 dose response curve plotting concentration of prostaglandin E2 versus number of contractions generated was then obtained by experimentally adjusting the dose of the prostaglandin E2 being injected into the tissue bath, in a manner known by those of skill in the art.
Solutions or suspensions containing an initial amount of a test compound in modified Tyrode solution ("test solutions/suspensions") were then separately substituted for the tissue bath. Each test solution/suspension was then kept in constant contact with the ileum tissue, except for brief periods to drain the bath in preparation for rinsing with fresh test solution/suspension. Different doses of prostaglandin E2 were again injected into the test solutions/suspensions.
A second prostaglandin E2 dose response curve was then generated for PGE2 in the presence of a test compound.
A dose ratio of EC50 doses (that dose of a compound or drug which is necessary to elicit a 50% maximal biological response and, thus, which is necessary to elicit a 50% reduction in the contractions of %he guinea pig ileum segments in this assay) was then calculated from the results of each test in a manner known by those of skill in the art. […]
If the initial concentration of a test compound was determined to be "active," then varying concentrations of the test compound were then assayed.
The pA2 value (a statistical constant which is a common measure of expressing the potency of a particular drug as a competitive antagonist) was then calculated for each test compound by schild plot calculations, as described by H. O. Schild, "pA A New , Scale for the Measurement of Drug Antagonism, " Br. J. Pharmacol, 2, 189 (1947), according to the following mathematical formula: […]

The subject of assay [2] is isolated smooth muscle preparations. The note with it: cited from earlier work.
Assay [3] relates to urethane-anesthetized rats. The note with it: cited from earlier work.
The mark [4] stands for this setting: Mus musculus, po, intragastric, mice, read-out: PBQ WRITHING ASSAY, No. Out of 10 (mice in which the initial screening dose produced analgesia), I.G. (converted).
[5] abbreviates: Mus musculus, sc, subcutaneous, mice, read-out: PBQ WRITHING ASSAY, No. Out of 10 (mice in which the initial screening dose produced analgesia), S.C. (converted).

Structures can show the parent of a compound that is named as a salt. Where two headings read alike, the source gives them in different places.

On to `CCCCC(C)(C/C=C\C(=O)N1Cc2ccccc2Oc2ccc(Cl)cc21)O[Si](C)(C)C` (centres unmarked) [Example 4, 8-chloro-10,11-dihydro-10-[5-methyl-1-oxo-5-[(trimethylsilyl)oxy]-2Z-nonenyl]-dibenz[b,f][1,4]oxazepine], for which the responders at 30 mg/kg was 50% with mice (setting [4]) and 80% in the assay with mice (setting [5]).
The corresponding values for `CCCCC(C)(C/C=C/C(=O)N1Cc2ccccc2Oc2ccc(Cl)cc21)O[Si](C)(C)C` (centres unmarked) [Example 5, 8-chloro-10,11-dihydro-10-[5-methyl-1-oxo-5-[(trimethylsilyl)oxy]-2E-nonenyl]-dibenz[b,f][1,4]oxazepine] are 30% and 60%.
Consider `CCCCC(C)(O)C/C=C/C(=O)N1Cc2ccccc2Oc2ccc(Cl)cc21` (centres unmarked) [Example 6, 8-chloro-10,11-dihydro-10-(5-hydroxy-5-methyl-1-oxo-2E-nonenyl)dibenz[b,f][1,4]oxazepine], for which the responders at 30 mg/kg with mice (setting [4]) and in the assay on mice (setting [5]) was 40% in each case. In assay [1], the Kb is 166 nM.
Turning to `CCCCCC(C)(/C=C/C(=O)N1Cc2ccccc2Oc2ccc(Cl)cc21)O[Si](C)(C)C` (centres unmarked) [Example 8, 8-chloro-10,11-dihydro-10-[4-methyl-1-oxo-4-[(trimethylsilyl)oxy]-2E-nonenyl]dibenz-[b,f][1,4]oxazepine], the responders at 30 mg/kg in the assay with mice (setting [4]) was 60%; with mice (setting [5]), 40%.
As to `CCCCCC(C)(O)/C=C/C(=O)N1Cc2ccccc2Oc2ccc(Cl)cc21` (centres unmarked) [Example 9, 8-chloro-10,11-dihydro-10-(4-hydroxy-4-methyl-1-oxo-2E-nonenyl)dibenz[b,f][1,4]oxazepine], the responders at 30 mg/kg was 50% with mice (setting [4]) and 90% in the assay with mice (setting [5]). The Kb in assay [1] was 617 nM.
The corresponding values for `CCCCCC(O)/C=C/C(=O)N1Cc2ccccc2Oc2ccc(Cl)cc21` (centres unmarked) [Example 11] are 20%, 30% and 214 nM.
`CCCCCC(/C=C/C(=O)N1Cc2ccccc2Oc2ccc(Cl)cc21)OC(=O)CN` (centres unmarked) [Example 12, glycine, 1-[3-(8-chloro-10,11-dihydrodibenz-[b,f][1,4]oxazepin-10-yl)-3-oxo-1E-propenyl]-hexyl ester, monohydrochloride]: the responders at 30 mg/kg with mice (setting [4]) was 55.6%; with mice (setting [5]), 30%. For the same compound, in the assay with mice, the “rank order of potency in the Writhing Assay” value was “Example 17 > Example 9 > Example 4 > Example 8 > Example 5 > Example 12”.
With `CCCCCC(=O)/C=C/C(=O)N1Cc2ccccc2Oc2ccc(Cl)cc21` [Example 13, 8-chloro-10,11-dihydro-10-(1,4-dioxo-2E-nonenyl)dibenz[b,f][1,4]oxazepin], the responders at 30 mg/kg with mice (setting [4]) was 10%; in the assay with mice (setting [5]), 22.2%.
In the same order, the values of `CCCCCC/C=C/C(=O)N1Cc2ccccc2Oc2ccc(Cl)cc21` [Example 14, 8-chloro-10,11-dihydro-10-(1-oxo-2E-nonenyl)dibenz[b,f][1,4]oxazepine] are 10% and 10%.
As for `CCCCCC(O)C#CC(=O)N1Cc2ccccc2Oc2ccc(Cl)cc21` (centres unmarked) [Example 15, 8-chloro-10,11-dihydro-10-(4-hydroxy-1-oxo-2-nonynyl)dibenz[b,f][1,4]oxazepine], the responders at 30 mg/kg was 10% with mice (setting [4]) and 30% with mice (setting [5]).
Consider `O=C(CCC(=O)N1Cc2ccccc2Oc2ccc(Cl)cc21)CCc1ccncc1` [Example 17, 8-chloro-10-[1,4-dioxo-6-(4-pyridinyl)hexyl]-10,11-dihydrodibenz[b,f][1,4]-oxazepine, monohydrochloride], for which, in the assay with mice (Mus musculus, po, intragastric, mice, ED50 dose, read-out: PBQ WRITHING ASSAY, ED50, I.G.), the median effective dose (ED50) came out at 5.4 mg/kg. In addition, the “most potent compound tested in the Writhing Assay” value with mice (in words) was “the most potent compound of the invention tested in this assay”. Moreover, the “rank order of potency in the Writhing Assay” value with mice is “Example 17 > Example 9 > Example 4 > Example 8 > Example 5 > Example 12”. Also, the Kb in assay [1] is 102 nM.
`O=C(Cc1ccccc1)NNC(=O)N1Cc2ccccc2Oc2ccc(Cl)cc21` [SC-18637]: the “inhibition of the stimulant actions of prostaglandins” value in assay [2] is listed as “inhibit the stimulant actions of prostaglandins on isolated smooth muscle preparations”.
For `CC(=O)NNC(=O)N1Cc2ccccc2Oc2ccc(Cl)cc21` [SC-19220], in assay [3], the bladder capacity entry is listed as “increased the bladder capacity” and the “voiding efficiency of micturition” value was “reduced the voiding efficiency of micturition”. In addition, the “inhibition of the stimulant actions of prostaglandins” value in assay [2] is on record as “inhibit the stimulant actions of prostaglandins on isolated smooth muscle preparations”.

For orientation: ED50 means the midpoint of the dose-response relation.
